Common to all, as to details: Compound concentration 10 µM
Test [1] deals with T1, Alpha-1A adrenergic receptor (Homo sapiens) (UniProt P35348).
T1 sequence (whole entry): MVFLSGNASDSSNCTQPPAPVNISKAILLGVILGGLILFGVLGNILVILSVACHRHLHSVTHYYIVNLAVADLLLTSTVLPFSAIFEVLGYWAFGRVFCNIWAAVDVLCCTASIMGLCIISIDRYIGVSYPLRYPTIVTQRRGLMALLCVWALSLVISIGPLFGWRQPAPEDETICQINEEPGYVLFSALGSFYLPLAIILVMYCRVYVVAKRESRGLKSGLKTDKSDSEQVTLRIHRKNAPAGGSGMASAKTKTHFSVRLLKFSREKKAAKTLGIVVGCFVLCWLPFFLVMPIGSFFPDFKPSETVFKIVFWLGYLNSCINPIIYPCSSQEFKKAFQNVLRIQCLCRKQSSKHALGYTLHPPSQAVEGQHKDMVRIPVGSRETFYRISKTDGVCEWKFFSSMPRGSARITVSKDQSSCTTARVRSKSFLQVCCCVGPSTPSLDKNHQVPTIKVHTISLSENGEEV

Test [2] addresses Beta-2 adrenergic receptor (Homo sapiens) (UniProt P07550).
The target in test [3] is T2, Muscarinic acetylcholine receptor M1 (Homo sapiens) (UniProt P11229).
T2 sequence (whole entry): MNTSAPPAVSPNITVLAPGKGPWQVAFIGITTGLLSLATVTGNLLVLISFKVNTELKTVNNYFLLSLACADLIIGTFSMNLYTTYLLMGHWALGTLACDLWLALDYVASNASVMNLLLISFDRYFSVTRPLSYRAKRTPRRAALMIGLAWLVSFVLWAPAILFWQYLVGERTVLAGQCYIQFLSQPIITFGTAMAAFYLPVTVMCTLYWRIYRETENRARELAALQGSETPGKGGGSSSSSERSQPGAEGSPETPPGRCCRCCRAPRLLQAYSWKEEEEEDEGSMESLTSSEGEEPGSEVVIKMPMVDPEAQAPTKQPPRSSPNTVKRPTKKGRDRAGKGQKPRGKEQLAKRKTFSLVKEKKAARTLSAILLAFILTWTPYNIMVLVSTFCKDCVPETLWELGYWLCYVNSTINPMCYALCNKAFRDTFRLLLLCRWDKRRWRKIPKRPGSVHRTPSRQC

The target in test [4] is Muscarinic acetylcholine receptor M3 (Homo sapiens) (UniProt P20309).
The target of test [5] is D(2) dopamine receptor (Homo sapiens) (UniProt P14416).
The target in test [6] is D(3) dopamine receptor (Homo sapiens) (UniProt P35462).
Test [7] has as its target D(1B) dopamine receptor (Homo sapiens) (UniProt P21918).
For test [8], the target named is Histamine H1 receptor (Homo sapiens) (UniProt P35367).
Test [9] addresses 5-hydroxytryptamine receptor 2A (Homo sapiens) (UniProt P28223).
The target in test [10] is T3, 5-hydroxytryptamine receptor 3A (Homo sapiens) (UniProt P46098).
T3 sequence (whole entry): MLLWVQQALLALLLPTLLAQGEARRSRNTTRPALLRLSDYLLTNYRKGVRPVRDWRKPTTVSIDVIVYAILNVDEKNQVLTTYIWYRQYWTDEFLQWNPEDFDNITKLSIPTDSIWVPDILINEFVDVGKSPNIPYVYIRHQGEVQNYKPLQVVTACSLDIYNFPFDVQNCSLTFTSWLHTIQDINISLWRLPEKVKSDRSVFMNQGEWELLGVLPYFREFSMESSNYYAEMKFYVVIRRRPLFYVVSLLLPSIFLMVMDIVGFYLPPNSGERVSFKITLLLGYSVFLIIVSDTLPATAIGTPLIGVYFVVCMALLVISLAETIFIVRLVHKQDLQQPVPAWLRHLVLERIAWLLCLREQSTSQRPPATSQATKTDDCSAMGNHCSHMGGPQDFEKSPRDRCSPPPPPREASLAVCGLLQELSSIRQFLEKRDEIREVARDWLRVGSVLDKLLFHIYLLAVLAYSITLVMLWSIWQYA

Test [11] addresses 5-hydroxytryptamine receptor 7 (Homo sapiens) (UniProt P34969).
Test [12] has as its target Delta-type opioid receptor (Homo sapiens) (UniProt P41143).
Test [13] concerns the target Mu-type opioid receptor (Homo sapiens) (UniProt P35372).
The target of test [14] is Sigma intracellular receptor 2 (Homo sapiens) (UniProt Q5BJF2).
Test [15] has as its target T4, Alpha-1D adrenergic receptor (Homo sapiens) (UniProt P25100).
T4 sequence (whole entry): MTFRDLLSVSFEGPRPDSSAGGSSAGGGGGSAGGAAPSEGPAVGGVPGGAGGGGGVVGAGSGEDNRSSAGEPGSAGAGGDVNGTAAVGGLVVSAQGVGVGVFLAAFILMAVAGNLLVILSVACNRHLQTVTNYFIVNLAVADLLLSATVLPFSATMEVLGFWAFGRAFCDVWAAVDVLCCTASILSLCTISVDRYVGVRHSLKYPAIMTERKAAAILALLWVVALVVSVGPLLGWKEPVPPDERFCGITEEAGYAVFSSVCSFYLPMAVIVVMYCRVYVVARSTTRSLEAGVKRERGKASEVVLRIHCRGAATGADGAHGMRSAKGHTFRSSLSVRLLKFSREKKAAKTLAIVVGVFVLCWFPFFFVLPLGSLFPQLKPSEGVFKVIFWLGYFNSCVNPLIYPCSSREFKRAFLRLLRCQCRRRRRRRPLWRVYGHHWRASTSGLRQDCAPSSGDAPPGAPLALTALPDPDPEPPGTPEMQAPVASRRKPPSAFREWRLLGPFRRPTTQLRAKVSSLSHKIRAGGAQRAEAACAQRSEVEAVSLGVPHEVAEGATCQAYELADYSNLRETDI

For test [16], the target named is Histamine H4 receptor (Homo sapiens) (UniProt Q9H3N8).
The target in test [17] is 5-hydroxytryptamine receptor 1B (Homo sapiens) (UniProt P28222).
The target in test [18] is 5-hydroxytryptamine receptor 1D (Homo sapiens) (UniProt P28221).
Test [19] has as its target 5-hydroxytryptamine receptor 2B (Homo sapiens) (UniProt P41595).
In test [20] the target is Sodium-dependent dopamine transporter (Homo sapiens) (UniProt Q01959).

Molecules are shown by their SMILES.

Muscarinic acetylcholine receptor M3 (Homo sapiens), sequence (P20309 whole entry, looked up): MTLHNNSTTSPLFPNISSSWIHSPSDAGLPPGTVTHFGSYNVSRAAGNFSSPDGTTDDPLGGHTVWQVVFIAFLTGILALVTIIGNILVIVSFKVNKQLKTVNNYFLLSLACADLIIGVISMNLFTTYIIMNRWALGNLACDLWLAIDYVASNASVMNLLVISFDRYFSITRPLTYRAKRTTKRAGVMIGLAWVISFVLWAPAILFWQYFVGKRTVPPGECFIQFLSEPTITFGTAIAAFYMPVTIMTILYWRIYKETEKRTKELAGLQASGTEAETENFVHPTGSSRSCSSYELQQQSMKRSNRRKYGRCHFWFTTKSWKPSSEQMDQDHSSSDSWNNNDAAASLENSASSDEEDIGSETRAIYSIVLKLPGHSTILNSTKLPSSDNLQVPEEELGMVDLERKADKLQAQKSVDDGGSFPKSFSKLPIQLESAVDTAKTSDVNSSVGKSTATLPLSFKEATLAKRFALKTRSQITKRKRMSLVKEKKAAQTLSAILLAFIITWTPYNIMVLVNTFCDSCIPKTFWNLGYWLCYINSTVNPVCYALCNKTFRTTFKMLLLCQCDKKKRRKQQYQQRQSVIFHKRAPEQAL
Delta-type opioid receptor (Homo sapiens), sequence (P41143 whole entry): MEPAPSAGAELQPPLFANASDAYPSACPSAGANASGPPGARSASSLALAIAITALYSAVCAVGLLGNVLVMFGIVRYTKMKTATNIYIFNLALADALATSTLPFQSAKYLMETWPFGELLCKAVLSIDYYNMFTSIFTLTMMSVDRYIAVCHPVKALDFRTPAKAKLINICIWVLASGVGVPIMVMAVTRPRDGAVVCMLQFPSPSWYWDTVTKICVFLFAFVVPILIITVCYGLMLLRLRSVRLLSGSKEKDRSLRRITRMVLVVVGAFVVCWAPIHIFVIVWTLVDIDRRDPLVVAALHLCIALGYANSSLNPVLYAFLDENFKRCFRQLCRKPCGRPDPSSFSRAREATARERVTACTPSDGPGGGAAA
Sigma intracellular receptor 2 (Homo sapiens), sequence (Q5BJF2 whole entry): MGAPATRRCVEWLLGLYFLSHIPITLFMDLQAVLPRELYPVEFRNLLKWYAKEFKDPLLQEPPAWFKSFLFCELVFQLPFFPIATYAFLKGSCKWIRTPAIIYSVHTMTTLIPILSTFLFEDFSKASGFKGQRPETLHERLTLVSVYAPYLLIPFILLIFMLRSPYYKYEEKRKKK
5-hydroxytryptamine receptor 7 (Homo sapiens), sequence (P34969 whole entry): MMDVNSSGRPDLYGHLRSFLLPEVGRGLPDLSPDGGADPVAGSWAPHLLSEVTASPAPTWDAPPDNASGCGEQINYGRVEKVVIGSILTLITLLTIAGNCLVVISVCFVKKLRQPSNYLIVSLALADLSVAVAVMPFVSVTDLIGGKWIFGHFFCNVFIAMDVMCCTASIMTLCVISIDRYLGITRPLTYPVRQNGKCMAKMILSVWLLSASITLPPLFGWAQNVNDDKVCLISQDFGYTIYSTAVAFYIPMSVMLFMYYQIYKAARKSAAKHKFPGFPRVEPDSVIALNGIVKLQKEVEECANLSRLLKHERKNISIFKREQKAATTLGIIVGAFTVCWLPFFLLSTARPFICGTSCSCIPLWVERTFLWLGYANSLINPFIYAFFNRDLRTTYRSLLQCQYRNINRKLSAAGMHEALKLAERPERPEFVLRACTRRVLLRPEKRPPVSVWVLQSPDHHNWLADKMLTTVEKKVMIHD
Histamine H4 receptor (Homo sapiens), sequence (Q9H3N8 whole entry): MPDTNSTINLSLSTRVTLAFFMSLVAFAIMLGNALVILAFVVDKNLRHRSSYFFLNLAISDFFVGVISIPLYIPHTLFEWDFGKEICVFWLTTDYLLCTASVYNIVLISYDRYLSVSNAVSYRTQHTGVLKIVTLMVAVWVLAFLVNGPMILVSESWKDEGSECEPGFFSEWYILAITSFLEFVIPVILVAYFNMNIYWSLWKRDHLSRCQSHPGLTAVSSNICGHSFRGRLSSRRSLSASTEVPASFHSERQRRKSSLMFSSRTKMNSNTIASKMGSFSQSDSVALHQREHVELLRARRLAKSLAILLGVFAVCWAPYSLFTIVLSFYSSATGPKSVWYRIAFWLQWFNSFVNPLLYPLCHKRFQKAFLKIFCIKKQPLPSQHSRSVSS
5-hydroxytryptamine receptor 1B (Homo sapiens), sequence (P28222 whole entry): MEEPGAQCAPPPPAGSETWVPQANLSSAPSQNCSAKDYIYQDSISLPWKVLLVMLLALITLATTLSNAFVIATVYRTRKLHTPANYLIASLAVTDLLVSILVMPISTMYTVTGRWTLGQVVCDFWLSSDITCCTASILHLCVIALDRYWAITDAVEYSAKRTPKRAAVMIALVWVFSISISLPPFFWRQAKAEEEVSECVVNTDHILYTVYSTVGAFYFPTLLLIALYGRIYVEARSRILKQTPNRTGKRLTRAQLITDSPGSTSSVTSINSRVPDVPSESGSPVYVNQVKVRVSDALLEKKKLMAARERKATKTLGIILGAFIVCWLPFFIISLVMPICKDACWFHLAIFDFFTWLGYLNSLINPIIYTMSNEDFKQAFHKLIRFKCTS
5-hydroxytryptamine receptor 1D (Homo sapiens), sequence (P28221 whole entry): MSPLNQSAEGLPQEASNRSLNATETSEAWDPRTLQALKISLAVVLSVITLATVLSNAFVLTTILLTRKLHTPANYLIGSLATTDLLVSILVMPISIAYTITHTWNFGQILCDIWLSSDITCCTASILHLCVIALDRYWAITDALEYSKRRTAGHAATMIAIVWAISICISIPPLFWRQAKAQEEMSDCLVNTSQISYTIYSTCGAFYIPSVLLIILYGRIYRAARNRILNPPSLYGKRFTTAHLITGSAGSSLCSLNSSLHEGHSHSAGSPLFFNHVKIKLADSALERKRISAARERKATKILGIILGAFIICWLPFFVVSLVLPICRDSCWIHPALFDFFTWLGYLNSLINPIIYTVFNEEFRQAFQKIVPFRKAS
Beta-2 adrenergic receptor (Homo sapiens), sequence (P07550 whole entry, looked up): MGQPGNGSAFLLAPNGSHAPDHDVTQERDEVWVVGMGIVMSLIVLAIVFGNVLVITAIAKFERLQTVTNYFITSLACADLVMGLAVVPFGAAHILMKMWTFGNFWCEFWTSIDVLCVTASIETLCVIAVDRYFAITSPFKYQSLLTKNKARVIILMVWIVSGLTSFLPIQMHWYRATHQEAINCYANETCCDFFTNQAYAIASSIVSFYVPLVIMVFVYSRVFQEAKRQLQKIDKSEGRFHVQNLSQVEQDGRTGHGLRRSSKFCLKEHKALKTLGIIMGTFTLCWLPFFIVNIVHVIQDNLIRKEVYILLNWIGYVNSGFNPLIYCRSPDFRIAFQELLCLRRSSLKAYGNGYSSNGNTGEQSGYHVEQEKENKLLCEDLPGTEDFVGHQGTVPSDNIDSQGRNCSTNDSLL
5-hydroxytryptamine receptor 2B (Homo sapiens), sequence (P41595 whole entry): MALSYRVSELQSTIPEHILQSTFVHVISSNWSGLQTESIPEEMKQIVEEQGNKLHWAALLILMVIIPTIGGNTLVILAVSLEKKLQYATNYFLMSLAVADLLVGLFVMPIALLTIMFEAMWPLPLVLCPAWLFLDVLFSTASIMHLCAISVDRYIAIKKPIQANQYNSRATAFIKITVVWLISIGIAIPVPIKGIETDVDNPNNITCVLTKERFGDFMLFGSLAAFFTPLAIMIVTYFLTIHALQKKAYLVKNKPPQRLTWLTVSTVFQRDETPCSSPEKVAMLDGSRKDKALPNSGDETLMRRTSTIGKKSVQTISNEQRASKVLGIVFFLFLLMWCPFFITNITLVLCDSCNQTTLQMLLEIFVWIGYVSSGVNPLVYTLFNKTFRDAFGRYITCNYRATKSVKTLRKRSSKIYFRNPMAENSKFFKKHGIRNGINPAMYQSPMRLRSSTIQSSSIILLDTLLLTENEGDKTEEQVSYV
D(1B) dopamine receptor (Homo sapiens), sequence (P21918 whole entry): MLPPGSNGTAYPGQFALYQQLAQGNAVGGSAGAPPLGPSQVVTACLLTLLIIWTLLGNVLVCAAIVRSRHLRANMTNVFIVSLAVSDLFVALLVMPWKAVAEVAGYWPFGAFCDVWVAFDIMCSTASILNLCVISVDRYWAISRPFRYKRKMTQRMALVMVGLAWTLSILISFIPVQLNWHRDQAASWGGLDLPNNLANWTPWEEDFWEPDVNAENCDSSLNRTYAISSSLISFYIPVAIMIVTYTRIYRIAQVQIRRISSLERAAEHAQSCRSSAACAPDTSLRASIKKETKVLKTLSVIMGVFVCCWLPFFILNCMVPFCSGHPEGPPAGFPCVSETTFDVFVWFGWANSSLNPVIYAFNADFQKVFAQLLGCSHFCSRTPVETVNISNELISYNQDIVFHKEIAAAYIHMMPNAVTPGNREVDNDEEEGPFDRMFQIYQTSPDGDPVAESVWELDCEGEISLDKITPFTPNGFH
D(2) dopamine receptor (Homo sapiens), sequence (P14416 whole entry): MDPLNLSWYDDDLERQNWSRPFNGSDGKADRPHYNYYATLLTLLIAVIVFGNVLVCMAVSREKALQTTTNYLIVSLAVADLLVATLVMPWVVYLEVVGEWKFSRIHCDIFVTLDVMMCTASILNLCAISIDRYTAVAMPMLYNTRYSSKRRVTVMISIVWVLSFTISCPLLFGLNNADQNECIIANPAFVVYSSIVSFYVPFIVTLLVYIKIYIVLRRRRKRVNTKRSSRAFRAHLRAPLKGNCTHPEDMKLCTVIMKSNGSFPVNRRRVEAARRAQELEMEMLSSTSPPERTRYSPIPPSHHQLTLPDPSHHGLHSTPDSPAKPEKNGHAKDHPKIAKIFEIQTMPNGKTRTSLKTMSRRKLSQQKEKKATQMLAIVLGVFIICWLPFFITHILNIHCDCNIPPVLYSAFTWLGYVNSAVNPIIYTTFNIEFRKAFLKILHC

In general, inhibition refers to the relative decrease from the control value, in per cent. Regarding `CC(C)Oc1ccccc1C(=O)Nc1ccccc1C(=O)Nc1cccc(S(=O)(=O)C(F)(F)F)c1`, the inhibition in test [1] was -8.65%; in [2] it was -8.68%; in test [3], -6.91%; in test [4], 13.1%; in test [5], 7.06%; in test [6] it was 23.1%. Moreover, the inhibition in [7] was 4.49%; in [8], 2.1%; in test [9], 87.8%; in test [10], -3.89%; in test [11], -3.5%; in [12] it was -2.57%. Moreover, the inhibition in test [13] is -7.51%; in [14] it was -6.23%.
As for `Brc1c(NC2=NCCN2)ccc2nccnc12`, the inhibition in test [1] was 34%; in [15] it was 59%; in test [2], -1.17%; in test [5], 12.5%; in test [6], 29.2%; in test [7], 34.9%. Further, the inhibition in test [16] was 2.56%; in test [17] it was 7.31%; in [18] it was 49.5%; in test [19], 22.7%; in test [10], -5.05%; in test [11], 69.9%. In addition, the inhibition in test [12] was 1.24%; in [13], 0.59%; in test [20] it was -6.87%; in test [14], 66.9%.
Regarding `CNC[C@H](O)c1ccc(O)c(O)c1`, the inhibition in [1] is 6.21%; in [15] it was 12.1%; in test [2] it was 34.2%; in test [5], 15.9%; in test [6], 47.1%; in test [7] it was -3.14%. Further, the inhibition was -7.99% in test [16]; 11.1% in test [17]; 15.8% in test [18]; 1.88% in [19]; -8.3% in test [11]; 6.63% in test [12]. Besides, the values for the inhibition in [13], in test [20] and in test [14] were -2.25%, 32.7% and 12.3%, respectively.
Regarding `Clc1cccc(Cl)c1NC1=NCCN1`, the inhibition in test [1] is 69%; in test [15] it was 66.8%; in [2] it was -4.25%; in test [6] it was 19.4%; in [16] it was 2.9%; in test [17] it was 13.1%. In addition, the inhibition in test [18] is 29.5%; in test [19], 93.8%; in [10], 5.96%; in [11], 77.2%; in test [12], -4.61%; in test [13], 3.84%. For the same compound, the inhibition is 20.8% in test [20] and 66.3% in test [14].
On to `COc1ccc2[nH]cc(CCNC(C)=O)c2c1`, for which the inhibition in test [1] was -4.46%; in [15], -5.37%; in test [2] it was -1.29%; in [5], 32.8%; in test [6], -7.6%; in test [7], 6.12%. The inhibition in [16] is -3.64%; in test [17] it was 12.5%; in test [18] it was 17.3%; in [19], 49.5%; in test [10], -3.39%; in test [11], -7.65%. Also, the inhibition in [12] is -3.9%; in test [20], 29.5%; in test [14], 22.1%.
Turning to `O=C(O)C1CN(Cc2ccc(OCc3ccc(Cl)c(Cl)c3)cc2)C1`, the inhibition was -0.54% in [1]; -5.42% in [15]; 2.35% in [3]; -5.25% in test [4]; 39.5% in [6]; -5.98% in [7]. Moreover, the inhibition in [8] is 86%; in test [16] it was -3.72%; in test [9] it was 55.1%; in test [19], 10.2%; in test [10], -8.5%; in test [11], -9.54%. For the same compound, the inhibition is 1.29% in [13] and 31.9% in [20].
Consider `NC(=O)[C@@H]1CCCN1C(=O)[C@H](Cc1c[nH]cn1)NC(=O)[C@@H]1CCC(=O)N1`, for which the inhibition was -7.07% in test [1]; -8.73% in test [15]; -3.59% in test [3]; 0.84% in test [4]; -4.39% in [5]; 4.54% in test [6]. The inhibition in test [7] was 0.19%; in [8], 9.67%; in test [16] it was 8.04%; in test [17], 7.27%; in [9], 23.5%; in test [19] it was 18.6%. Moreover, the inhibition is 8.73% in test [10]; -8.14% in [11]; 1.37% in test [12]; 45.1% in test [13]; 40.9% in [20]; 35% in test [14].
`CC(C)(C(=O)O)c1ccc(C(O)CCCN2CCC(C(O)(c3ccccc3)c3ccccc3)CC2)cc1` (stereo not drawn): the inhibition was -2.43% in test [15]; -5.98% in test [2]; 65.8% in test [5]; 53% in test [6]; 18.3% in [7]; -8.03% in [16]. The inhibition in test [17] was 8.43%; in test [18], 39.8%; in [19], 67.8%; in test [11] it was 4.24%; in test [20], 21.9%; in test [14], 39.2%.

The values are drawn from ChEMBL document CHEMBL5442219.
